# From patent US20060194814A1, “Benzamide compounds” (priority 2003, published 2006)
# Where a name gives a salt, the structure may show the parent alone.
# Tests used:
# HeLa cells = assay: MTT cytotoxicity assay after the HIV replication protocol; format: cell-based, human; conditions: all concentrations tested, up to 100 μM
# [1] = system: H295R human adrenal tumor cells; assay: MTT mitochondrial function/cell viability in H295R cells; format: cell-based
# Procedure: Cell viability at the end of the incubation protocol described above was assessed using the mitochondrial integrity 3-(4,5-dimethylthiazol-2-yl)-2,5-diphenyl tetrazolium bromide (MTT) assay (Trevigen, Gaithersburg, Md.). Briefly, 10 l of the MTT solution were added to the cells in 100 l medium. After an incubation period of 4 hours, 100 l of detergent were added and cells were incubated overnight at 37° C. Formazan blue formation was quantified at 600 nm and 690 nm using the Victor quantitative detection spectrophotometer (EGG-Wallac, Gaithersburg, Md.) and the results expressed as (OD600-OD690).
# P-450scc = biological target: T1, P-450scc (Mus musculus, UniProt Q9QZ82); assay: 22R-hydroxycholesterol-induced 20á-hydroxyprogesterone synthesis in Y1 cells; format: cell-based
# T1 construct: endogenous in cells; host or cells: Y1 mouse adrenal tumor cells
# T1 sequence (Q9QZ82 37-526): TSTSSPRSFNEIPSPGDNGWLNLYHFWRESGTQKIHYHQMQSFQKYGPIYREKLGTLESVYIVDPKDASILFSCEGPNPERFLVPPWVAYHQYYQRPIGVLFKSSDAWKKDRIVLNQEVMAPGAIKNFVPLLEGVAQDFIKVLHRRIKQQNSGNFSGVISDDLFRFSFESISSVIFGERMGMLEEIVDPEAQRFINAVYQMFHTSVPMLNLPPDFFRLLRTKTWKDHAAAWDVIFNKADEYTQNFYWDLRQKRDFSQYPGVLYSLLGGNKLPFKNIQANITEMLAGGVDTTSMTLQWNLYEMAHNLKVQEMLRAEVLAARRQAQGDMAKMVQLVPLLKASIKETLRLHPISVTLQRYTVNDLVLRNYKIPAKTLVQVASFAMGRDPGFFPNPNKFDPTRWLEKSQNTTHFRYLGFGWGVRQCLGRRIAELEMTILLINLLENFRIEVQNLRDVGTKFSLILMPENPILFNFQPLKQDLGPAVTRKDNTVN
# Procedure: […] […] The synthesis of 20 —OH progesterone and progesterone in Y1 and MA-10 cell media respectively were measured by RIA (Brown et al., 1992). H295R human adrenal tumor cells were seeded in 48-well plates at 10^5 cells/well and incubated for 24 hours. […] At the end of the incubation time period, cells were treated with 1 mM dbcAMP for 48 hours. Cortisol levels in the media were determined by radioimmunoassay as previously described (Amri et al., 1996).
# Y1 cells = assay: dbcAMP and mevalonate-supported 20á-hydroxyprogesterone formation in Y1 cells; format: cell-based, mouse; parameters: dose or concentration left out as unconfirmed; conditions: procaine
# Procedure: Culture media were then changed and cells were stimulated with 1 mM dbcAMP and the treatment for 24 to 48 hours. […] The synthesis of 20 —OH progesterone and progesterone in Y1 and MA-10 cell media respectively were measured by RIA (Brown et al., 1992). H295R human adrenal tumor cells were seeded in 48-well plates at 10^5 cells/well and incubated for 24 hours. […] At the end of the incubation time period, cells were treated with 1 mM dbcAMP for 48 hours. Cortisol levels in the media were determined by radioimmunoassay as previously described (Amri et al., 1996).
# HMG-CoA reductase mRNA = HMG-CoA reductase mRNA expression by Q-PCR in UT-1 cells; format: cell-based, Chinese hamster
# Procedure: After treatment, cells were stimulated with 1 mM dbcAMP for 24 hours. At the end of the incubation, total cell RNA was extracted using RNA STAT-60 (Tel-Test Inc, Friendswood, Tex.) according to the manufacturer's instructions. HMG-CoA reductase mRNA was quantified by Q-PCR using the ABI Prism 7700 sequence detection system (Perkin-Elmer/Applied Biosystems, Foster City, Calif.). RT reaction was performed using TaqMan® Reverse Transcription Reagents with 1 g total RNA and random hexamers as primers for each reaction according to the manufacturer's instructions. For quantifying mouse HMG-CoA reductase mRNA with Q-PCR, the primers were designed according to GenBank Accession Number BC 019782 using PE/AB Primer Express software, which is specifically designed for the selection of primers and probes. The forward primer was 5′-[…]-3′ (22 nucleotides; SEQ ID NO:1) and reverse primer was 5′-[…]-3′ (23 nucleotides; SEQ ID NO:2), respectively. The primers were synthesized by Bio-Synthesis Inc. (Lewisville, Tex.). Reactions were performed in a reaction mixture consisting of a 20 l volume solution containing 10 l SYBR® Green PCR Master Mix and 1 l primers mix (5 M each) with 2 l cDNA.
smiles,measurement,setting,value
"CCN(CC)CCOC(=O)c1ccc(N)cc1 [SP01, procaine HCl]",cell toxicity (MTT),HeLa cells,devoid of cell toxicity
same,effect on dbcAMP-induced change of mitochondrial function (MTT),[1],protected against the dbc-AMP-induced change of mitochondrial function
same,effect on 22R-hydroxycholesterol-induced steroidogenesis,P-450scc,did not inhibit
same,effect on dbcAMP and mevalonate-supported 20á-hydroxyprogesterone formation,Y1 cells,did not inhibit
same,effect on HMG-CoA reductase mRNA expression,HMG-CoA reductase mRNA,not significant
